Results as given in patent US20130172318A1, “ANTI-INFLAMMATORY AGENTS” (priority 2010, published 2013).

How the values were obtained:
[1] = tested on: MCP-1 induced migration of THP-1 cells; conditions: MCP-1 induced THP-1 cell migration assay; disclosed in WO2005/053702; cited from earlier work
[2] = tested on: endotoxin-stimulated TNF-alpha levels; test: Murine sub-lethal endotoxemia model, serum TNF-α by ELISA; assay type: in vivo, mouse; conditions: single dose 1 mg/kg p.o. one hour prior to LPS i.p.; female CD1 mice; serum two hours after challenge
Experimental: The anti-inflammatory efficacy of an exemplary compound according to the present invention was tested using the murine sub-lethal endotoxemia model.
Briefly, the method is as follows: Female CD1 mice (28-30 g, ˜7 weeks of age) were dosed with their respective treatment in sterile filtered 1% CMC by oral gavage in a dose volume of 10 ml/kg one hour prior to an endotoxin (LPS) challenge. The endotoxin challenge was injected by the intraperitoneal route containing 675,000 Endotoxin Units of LPS (E. coli strain 0111:B4 (Code L4130)) in endotoxin free PBS. Mice were left for two hours and then exsanguinated under terminal anaesthesia and blood was taken. Serum was prepared from this terminal bleed and aliquoted and stored at −20° C. Serum TNF-α levels were measured by ELISA per manufacturers instructions (R and D Systems).
Eight animals were treated in each group, and the data for the animal with the highest and lowest TNF-α level in each group were eliminated, and the mean and standard error reported for the remaining six animals. Data for untreated animals were taken from an historical control experiment.

Row | SMILES | fold more potent as a BSCI than dodecanoyl-3-aminocaprolactam [1] | inhibition of endotoxin-stimulated TNF-alpha levels [2]
1 | CCCCCCCCCCC(C)(C)C(=O)NC1CCCCNC1=O (centres unmarked) [2′2′-dimethyldodecenanoyl-3-aminocaprolactam] | 10 fold | 
2 | O=C(N[C@H]1CCCNC1=O)c1ccc(F)cc1 [Example 3, (S)-4-Fluoro-N-(2-oxopiperidin-3-yl)benzamide] |  | 50%
